Measurements from article PMC12203862, “BroadAMP-GPT: AI-Driven generation of broad-spectrum antimicrobial peptides for combating multidrug-resistant ESKAPE pathogens” (Gut Microbes, 2025).
≈ marks a conversion by molar mass, not a printed value. Residues, ends and D or L forms follow the SMILES beside them.

Columns and labels:
[1] = tested on: S. aureus ATCC 29213; test: microbe, parasite or virus in culture; assay type: cell-based; settings: ATCC 29213
[2] = tested on: E. faecalis ES01; test: microbe, parasite or virus in culture; assay type: cell-based; settings: ES01
Procedure, shortened: (§1)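 Peptides are tested against each isolate by broth microdilution according to CLSI M100-ED34, with inocula prepared from overnight TSB cultures at 37 °C. The MIC is the lowest concentration that inhibits visible growth.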

[3] = tested on: S. pyogenes DL02; test: microbe, parasite or virus in culture; assay type: cell-based; settings: DL02
Procedure, shortened: as §1

[4] = tested on: S. aureus M147-2; test: microbe, parasite or virus in culture; assay type: cell-based; settings: M147-2
Procedure, shortened: as §1

[5] = tested on: E. faecalis J2; test: microbe, parasite or virus in culture; assay type: cell-based; settings: J2
Procedure, shortened: as §1

[6] = tested on: E. faecium QF31; test: microbe, parasite or virus in culture; assay type: cell-based; settings: QF31
Procedure, shortened: as §1

[7] = tested on: A. baumannii 7979; test: microbe, parasite or virus in culture; assay type: cell-based; settings: 7979
[8] = tested on: S. aureus YZSA-24; test: microbe, parasite or virus in culture; assay type: cell-based; settings: YZSA-24
Procedure, shortened: as §1

[9] = tested on: E. faecium HFY01; test: microbe, parasite or virus in culture; assay type: cell-based; settings: HFY01
Procedure, shortened: as §1

[10] = tested on: S. suis SH0918; test: microbe, parasite or virus in culture; assay type: cell-based
Procedure, shortened: as §1

[11] = tested on: E. coli ATCC 25922; test: microbe, parasite or virus in culture; assay type: cell-based; settings: ATCC 25922
Procedure, shortened: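 Broth microdilution MIC per CLSI M100-ED34; Gram-positive strains grown in TSB at 37 °C overnight. MIC taken as lowest concentration inhibiting visible growth. E. coli ATCC 25,922 and S. aureus ATCC 29,213 served as quality controls.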

[12] = tested on: A. baumannii AB11; test: microbe, parasite or virus in culture; assay type: cell-based; settings: AB11
[13] = tested on: E. faecalis JH2-2; test: microbe, parasite or virus in culture; assay type: cell-based; settings: JH2-2
Procedure, shortened: as §1

[14] = tested on: K. pneumoniae 9-1; test: microbe, parasite or virus in culture; assay type: cell-based; settings: 9-1
[15] = tested on: S. agalactiae DL03; test: microbe, parasite or virus in culture; assay type: cell-based; settings: DL03
Procedure, shortened: as §1

[16] = tested on: S. aureus YZSA-21; test: microbe, parasite or virus in culture; assay type: cell-based; settings: YZSA-21
Procedure, shortened: as §1

[17] = tested on: S. aureus M92-1; test: microbe, parasite or virus in culture; assay type: cell-based; settings: M92-1
Procedure, shortened: as §1

[18] = tested on: S. aureus YZSA-15; test: microbe, parasite or virus in culture; assay type: cell-based; settings: YZSA-15
Procedure, shortened: as §1

[19] = tested on: E. faecium MC38; test: microbe, parasite or virus in culture; assay type: cell-based; settings: MC38
Procedure, shortened: as §1

[20] = tested on: P. aeruginosa PA14; test: microbe, parasite or virus in culture; assay type: cell-based; settings: PA14
[21] = tested on: four Gram-positive and five Gram-negative bacteria, including ESKAPE pathogens; assay type: cell-based
Description: (§2) Bacterial strains and growth conditions: All Gram-negative and Gram-positive bacterial strains (Supplementary Table S8) were cultured in Luria-Bertani (LB) or trypticase soy broth (TSB) agar plates, respectively, and incubated overnight at 37 °C unless specifically indicated. A single colony of the tested bacterial strains was inoculated into medium broth with shaking at 220 rpm for further experiments.
(§3) Minimal inhibitory concentrations: Antimicrobial susceptibility testing was performed by broth microdilution method for AMPs against Gram-positive and Gram-negative pathogens above mentioned, following the methods of document CLSI M100-ED34.[43] The MICs were defined as the lowest concentrations that inhibit visible growth of the tested bacteria. E. coli ATCC 25,922 and S. aureus ATCC 29,213 were served as quality controls.

[22] = tested on: S. aureus clinical isolates (n = 40); assay type: cell-based
Description: as §2, §3

[23] = tested on: HEp-2; test: Cytotoxicity, CCK-8; assay type: cell-based, human; settings: for CC50: 48 h; for CC50/MIC: HEp-2, MIC values against S. aureus ATCC 29213
Description: (§4) The cytotoxicity of selected AMPs to human laryngeal carcinoma epithelial cell (HEp-2) and colorectal adenocarcinoma cell (Caco-2) lines was evaluated using the CCK-8 method as previously described.[55] The cells were cultured in high-glucose dulbecco’s modified eagle medium (DMEM) supplemented with 10% fetal bovine serum (FBS) and 1% penicillin-streptomycin. Cells were inoculated in 96-well sterile microtiter plate at 5000 cells/100 μL. After cultured (37℃, 5%CO2) for 24 h, cells were treated with AMPs at concentrations ranging from 8 to 128 μg/mL for another 48 h. Afterward, the culture medium was replaced by fresh DMEM medium containing 10% CCK-8 and incubated for 1 h. The absorbance of the solution was measured at 450 nm by a microplate reader. Cell viability was calculated as: % cell viability = [(Abssample - Absblank)/(Absnegative - Absblank)]×100%. Each experiment was carried out with three replicates.

[24] = tested on: Caco-2; test: Cytotoxicity, CCK-8; assay type: cell-based, human; settings: for CC50: 48 h; for CC50/MIC: Caco-2, MIC values against S. aureus ATCC 29213
Description: as §4

[25] = tested on: mouse red blood cells; test: Haemolysis assay; assay type: cell-based; settings: for HC50/MIC: MIC values against S. aureus ATCC 29213
Description: Red blood cells (RBCs) from Kunming mice were used to evaluate the hemolytic toxicity of the selected AMPs. Fresh red blood cells were collected from mice and washed until the supernatant was completely cleared. Added 19-fold volume of PBS to prepare 2% RBC suspension. […] Afterward, the mixture was centrifuged at 1500 rpm for 10 min. Then transferred 30 µL supernatant to 96-well plate containing 70 µL PBS. The absorbance of the sample was measured at 450 nm by a microplate reader. PBS and 2% Triton X-100 was used as negative and positive control, respectively. The experiment was performed in triplicate and the hemolysis activity was calculated by the formula hemolysis = [(Absorbancesample- AbsorbancePBS)/(AbsorbanceTriton x-100-AbsorbancePBS)]×100%.

[26] = tested on: S. suis P1/7; test: microbe, parasite or virus in culture
Procedure, shortened: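 Antimicrobial peptides were tested by broth microdilution following CLSI M100-ED34. Strains were grown overnight at 37 °C on LB (Gram-negative) or TSB (Gram-positive) agar, then in shaken broth. MIC is the lowest concentration preventing visible growth.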

[27] = tested on: S. enteritis S1; test: organism not typed; assay type: cell-based
[28] = tested on: trypsin; settings: trypsin 10 μg/mL, 37℃, 1 h, then MIC
Description: (§5) To understand stability of peptide under different pH conditions, AMP solutions were prepared at different pH values (pH = 2, 4, 6, 8, 10, and 12) and then incubated at room temperature for 1 h. For the temperature stability, AMP solutions were incubated at 20, 25, 40, 60, 80, and 100℃ for 1 h. For the protease stability, AMP solutions were incubated with pepsin, trypsin, and proteinase K at different concentration of 10 μg/mL at 37℃ for 1 h.[52],[53] After incubation, the MIC values peptides were determined using the MIC experimental protocol.

[29] = tested on: pepsin; settings: pepsin 10 μg/mL, 37℃, 1 h, then MIC
Description: as §5

[30] = molecular target: proteinase K (Parengyodontium album, UniProt P06873); test: Protease stability by MIC change; assay type: in vitro ADME; settings: proteinase K 10 μg/mL, 37℃, 1 h, then MIC
Sequence of proteinase K (P06873 106-384): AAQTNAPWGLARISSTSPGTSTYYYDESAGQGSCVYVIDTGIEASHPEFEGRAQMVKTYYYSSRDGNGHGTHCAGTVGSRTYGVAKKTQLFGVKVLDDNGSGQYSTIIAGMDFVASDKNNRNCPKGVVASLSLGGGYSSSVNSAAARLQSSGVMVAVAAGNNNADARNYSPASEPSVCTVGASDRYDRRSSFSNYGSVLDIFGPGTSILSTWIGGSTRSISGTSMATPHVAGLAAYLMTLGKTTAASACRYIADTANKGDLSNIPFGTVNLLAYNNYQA

[31] = MIC in the presence of 50% rabbit plasma; S. aureus, E. faecalis, S. suis, S. enteritis, K. pneumoniae
[32] = tested on: E. faecalis SF23-1; test: microbe, parasite or virus in culture; assay type: cell-based; settings: SF23-1
Procedure, shortened: as §1

[33] = tested on: P. aeruginosa PAO1; test: microbe, parasite or virus in culture; assay type: cell-based; settings: PAO1
[34] = tested on: chymotrypsin; settings: 1 h, then MIC

Row | Compound | MIC [1] | MIC [2] | MIC [3] | MIC [4] | MIC [5] | MIC [6] | MIC [7] | MIC [8] | MIC [9] | MIC [10] | MIC [11] | MIC [13] | MIC [14] | MIC [15] | MIC [16] | MIC [17] | MIC [18] | MIC [19] | MIC [20] | MIC values, range [21] | other results
1 | CC(C)C[C@H](NC(=O)[C@H](CCCCN)NC(=O)[C@H](Cc1c[nH]c2ccccc12)NC(=O)[C@H](CC(C)C)NC(=O)[C@H](CC(C)C)NC(=O)[C@H](CCCCN)NC(=O)[C@H](Cc1c[nH]c2ccccc12)NC(=O)[C@H](Cc1c[nH]c2ccccc12)NC(=O)[C@H](CCCCN)NC(=O)[C@H](CCCCN)NC(=O)[C@H](C)N)C(=O)N[C@@H](Cc1c[nH]c2ccccc12)C(=O)N[C@@H](CCCCN)C(=O)N[C@@H](CCCCN)C(=O)N[C@@H](C)C(=O)N[C@@H](CCCCN)C(=O)O [AMP_S4] (H-AKKWWKLLWKLWKKAK-OH) | 4 µg/mL (≈ 1.87 µM) | 4 µg/mL (≈ 1.87 µM) | 4 µg/mL (≈ 1.87 µM) | 4 µg/mL (≈ 1.87 µM) | 8 µg/mL (≈ 3.74 µM) | 4 µg/mL (≈ 1.87 µM) | 4 µg/mL (≈ 1.87 µM) | 16 µg/mL (≈ 7.47 µM) | 4 µg/mL (≈ 1.87 µM) | 4 µg/mL (≈ 1.87 µM) | 8 µg/mL (≈ 3.74 µM) | 8 µg/mL (≈ 3.74 µM) | 16 µg/mL (≈ 7.47 µM) | 4 µg/mL (≈ 1.87 µM) | 4 µg/mL (≈ 1.87 µM) | 4 µg/mL (≈ 1.87 µM) | 4 µg/mL (≈ 1.87 µM) | 4 µg/mL (≈ 1.87 µM) | 8 µg/mL (≈ 3.74 µM) | 2 to 16 µg/mL | MIC [12]: 2 µg/mL (≈ 0.934 µM); MICs, range over panel [21]: 2 to 16 µg/mL; MICs, range over clinical isolates [22]: 4 to 32 µg/mL; CC50 [23]: 35.16 µg/mL (≈ 16.4 µM); CC50/MIC [23]: 8.8; CC50 [24]: 15.82 µg/mL (≈ 7.39 µM); CC50/MIC [24]: 3.96; HC50/MIC [25]: 4.56; MIC [26]: 4 µg/mL (≈ 1.87 µM); MIC [27]: 16 µg/mL (≈ 7.47 µM)
2 | CC[C@H](C)[C@H](NC(=O)[C@H](C)NC(=O)[C@H](CCC(N)=O)NC(=O)[C@H](Cc1c[nH]c2ccccc12)NC(=O)[C@H](C)N)C(=O)N[C@@H](C)C(=O)N[C@@H](CCCNC(=N)N)C(=O)N[C@@H](CC(C)C)C(=O)N[C@H](C(=O)N[C@@H](CCCCN)C(=O)NCC(=O)N[C@@H](CCCNC(=N)N)C(=O)NCC(=O)N[C@@H](CCCNC(=N)N)C(=O)N[C@@H](CCCCN)C(=O)N[C@@H](CCCCN)C(=O)N[C@@H](Cc1ccc(O)cc1)C(=O)NCC(=O)N[C@@H](CCCNC(=N)N)C(=O)N[C@H](C(=O)N[C@H](C(=O)N[C@H](C(=O)N[C@H](C(=O)NCC(=O)O)[C@@H](C)CC)[C@@H](C)CC)[C@@H](C)CC)[C@@H](C)CC)[C@@H](C)CC [AMP_S13] (H-AWQAIARLIKGRGRKKYGRIIIIG-OH) | 8 µg/mL (≈ 2.92 µM) | 4 µg/mL (≈ 1.46 µM) | 4 µg/mL (≈ 1.46 µM) | 8 µg/mL (≈ 2.92 µM) | 8 µg/mL (≈ 2.92 µM) | 4 µg/mL (≈ 1.46 µM) | 2 µg/mL (≈ 0.73 µM) | 16 µg/mL (≈ 5.84 µM) | 4 µg/mL (≈ 1.46 µM) | 4 µg/mL (≈ 1.46 µM) | 8 µg/mL (≈ 2.92 µM) | 8 µg/mL (≈ 2.92 µM) | 16 µg/mL (≈ 5.84 µM) | 4 µg/mL (≈ 1.46 µM) | 8 µg/mL (≈ 2.92 µM) | 8 µg/mL (≈ 2.92 µM) | 8 µg/mL (≈ 2.92 µM) | 4 µg/mL (≈ 1.46 µM) | 8 µg/mL (≈ 2.92 µM) | 2 to 16 µg/mL | antimicrobial activity (MIC) after protease incubation [28]: maintained its activity; antimicrobial activity (MIC) after protease incubation [29]: maintained its activity; antimicrobial activity (MIC) after protease incubation [30]: only a two-fold decrease in MIC; antimicrobial activity in plasma [31]: remained effective; MIC [32]: 8 µg/mL (≈ 2.92 µM); MIC [33]: 8 µg/mL (≈ 2.92 µM); MICs, range over panel [21]: 2 to 16 µg/mL; MICs, range over clinical isolates [22]: 4 to 32 µg/mL; CC50 [23]: 353.3 µg/mL (≈ 129 µM); CC50/MIC [23]: 44.16; CC50 [24]: 1011 µg/mL (≈ 369 µM); CC50/MIC [24]: 126.38; HC50/MIC [25]: 116.08; HC50 ([25]; mouse red blood cells, 37℃, 1 h): 928.6 µg/mL; MIC [26]: 4 µg/mL (≈ 1.46 µM); MIC [27]: 16 µg/mL (≈ 5.84 µM); antimicrobial activity (MIC) after protease incubation [34]: maintained its activity
